# Assay results from ChEMBL document CHEMBL5034034 (J Med Chem, 2021).
# The source made the active and inactive calls. The rule behind the calls is not given here.
# Key:
# Mast cell = assay: Induction of rat mast cells degranulation activity at 100 uM incubated for 30 mins; format: functional, tissue-based
# [1] = Volume of distribution at steady state in Wistar Han rat at 1 mg/kg, iv measured upto 24 hrs by LC-MS/MS analysis; format: ADME, organism-based; conditions: in vivo, read-out: Vdss
# [2] = Half life in Wistar Han rat at 1 mg/kg, iv measured upto 24 hrs by LC-MS/MS analysis; format: ADME, organism-based; conditions: in vivo
# [3] = AUC(0 to infinity) in Wistar Han rat at 1 mg/kg, iv measured upto 24 hrs by LC-MS/MS analysis; format: ADME, organism-based; design: route intravenous, dose 1 mg/kg, time <=24; conditions: in vivo
# [4] = Protein binding in cynomolgus monkey at 1 mg/kg, iv measured upto 72 hrs by LC-MS/MS analysis; format: ADME, organism-based, Macaca fascicularis; conditions: in vivo, read-out: PB (converted)
# [5] = Half life in OATP knock out Wistar Han rat at 1 mg/kg, iv measured upto 24 hrs by LC-MS/MS analysis; format: ADME, organism-based; conditions: in vivo
# [6] = Clearance in OATP knock out Wistar Han rat at 1 mg/kg, iv measured upto 24 hrs by LC-MS/MS analysis; format: ADME, organism-based; conditions: in vivo
# [7] = Protein binding in OATP knock out Wistar Han rat; format: ADME; conditions: read-out: PB
# [8] = Clearance in Wistar Han rat at 1 mg/kg, iv measured upto 24 hrs by LC-MS/MS analysis; format: ADME, organism-based; conditions: in vivo
# [9] = Clearance in cynomolgus monkey at 1 mg/kg, iv measured upto 72 hrs by LC-MS/MS analysis; format: ADME, organism-based, Macaca fascicularis; conditions: in vivo
# [10] = Unbound clearance in cynomolgus monkey at 1 mg/kg, iv measured upto 72 hrs by LC-MS/MS analysis; format: ADME, organism-based, Macaca fascicularis; conditions: in vivo
# [11] = AUC(0 to infinity) in OATP knock out Wistar Han rat at 1 mg/kg, iv measured upto 24 hrs by LC-MS/MS analysis; format: ADME, organism-based; design: route intravenous, dose 1 mg/kg, time <=24; conditions: in vivo
# [12] = Volume of distribution at steady state in cynomolgus monkey at 1 mg/kg, iv measured upto 72 hrs by LC-MS/MS analysis; format: ADME, organism-based, Macaca fascicularis; conditions: in vivo, read-out: Vdss
# [13] = biological target: T1, Proprotein convertase subtilisin/kexin type 9 (Homo sapiens, UniProt Q8NBP7); assay: Inhibition of human PCSK9 using Alexa Fluor […] as substrate incubated for 2 hrs by FRET assay
# [14] = Protein binding in Wistar Han rat at 1 mg/kg, iv measured upto 24 hrs by LC-MS/MS analysis; format: ADME, organism-based; conditions: in vivo, read-out: PB (converted)
# [15] = biological target: T1, Proprotein convertase subtilisin/kexin type 9; assay: Inhibition of human PCSK9 using Alexa Fluor […] as substrate incubated for 2 hrs by FRET plus assay
# [16] = Volume of distribution at steady state in OATP knock out Wistar Han rat at 1 mg/kg, iv measured upto 24 hrs by LC-MS/MS analysis; format: ADME, organism-based; conditions: in vivo, read-out: Vdss
# [17] = Unbound clearance in OATP knock out Wistar Han rat at 1 mg/kg, iv measured upto 24 hrs by LC-MS/MS analysis; format: ADME, organism-based; conditions: in vivo
# [18] = biological target: T2, Solute carrier organic anion transporter family member 1B1 (Homo sapiens, UniProt Q9Y6L6); assay: Inhibition of OATP1B1 (unknown origin) expressed in HEK293 cells assessed as reduction in OATP 1B1-mediated [3H]-pitavastatin uptake preincubated for 30 mins followed by [3H]-pitavastatin addition and measured after 2 mins by liquid scintillation analysis; format: cell-based
# T2 sequence (Q9Y6L6 whole entry): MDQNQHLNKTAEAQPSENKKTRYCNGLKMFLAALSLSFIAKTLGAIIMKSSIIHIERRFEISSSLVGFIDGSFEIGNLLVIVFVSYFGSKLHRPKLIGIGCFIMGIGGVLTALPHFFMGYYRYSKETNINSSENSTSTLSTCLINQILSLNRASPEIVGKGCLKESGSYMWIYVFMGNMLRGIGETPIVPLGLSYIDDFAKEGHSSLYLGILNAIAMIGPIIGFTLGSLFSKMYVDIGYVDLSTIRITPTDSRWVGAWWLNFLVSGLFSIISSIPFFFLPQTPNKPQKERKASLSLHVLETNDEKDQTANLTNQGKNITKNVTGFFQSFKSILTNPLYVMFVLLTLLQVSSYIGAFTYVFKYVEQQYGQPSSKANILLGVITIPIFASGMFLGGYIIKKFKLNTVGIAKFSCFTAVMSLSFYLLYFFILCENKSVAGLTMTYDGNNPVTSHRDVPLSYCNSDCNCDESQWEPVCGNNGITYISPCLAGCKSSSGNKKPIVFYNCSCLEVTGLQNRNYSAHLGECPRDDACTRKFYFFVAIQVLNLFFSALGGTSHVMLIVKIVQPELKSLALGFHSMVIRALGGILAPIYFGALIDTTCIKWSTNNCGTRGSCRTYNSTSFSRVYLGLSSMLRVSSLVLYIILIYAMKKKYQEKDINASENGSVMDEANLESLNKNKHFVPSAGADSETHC
# [19] = Half life in cynomolgus monkey at 1 mg/kg, iv measured upto 72 hrs by LC-MS/MS analysis; format: ADME, organism-based, Macaca fascicularis; conditions: in vivo
# [20] = AUC(0 to infinity) in cynomolgus monkey at 1 mg/kg, iv measured upto 72 hrs by LC-MS/MS analysis; format: ADME, organism-based, Macaca fascicularis; design: route intravenous, dose 1 mg/kg, time <=72; conditions: in vivo
# [21] = Unbound clearance in Wistar Han rat at 1 mg/kg, iv measured upto 24 hrs by LC-MS/MS analysis; format: ADME, organism-based; conditions: in vivo
# [22] = AUC(0 to infinity) in cynomolgus monkey at 0.2 mg/kg, iv measured upto 72 hrs by LC-MS/MS analysis; format: ADME, organism-based, Macaca fascicularis; design: route intravenous, dose 0.2 mg/kg, time <=72; conditions: in vivo
# [23] = Bioavailability in Wistar Han rat at 5 mg/kg, id measured upto 24 hrs by LC-MS/MS analysis; format: ADME, organism-based; conditions: in vivo
# [24] = Cmax in Wistar Han rat at 5 mg/kg, id measured upto 24 hrs by LC-MS/MS analysis; format: ADME, organism-based; design: dose 5 mg/kg, time <=24; conditions: in vivo
# [25] = Unbound clearance in cynomolgus monkey at 0.2 mg/kg, iv measured upto 72 hrs by LC-MS/MS analysis; format: ADME, organism-based, Macaca fascicularis; conditions: in vivo
# [26] = Tmax in cynomolgus monkey at 1 mg/kg, po measured upto 72 hrs by LC-MS/MS analysis; format: ADME, organism-based, Macaca fascicularis; conditions: in vivo
# [27] = Reduction in LDL-cholesterol levels in cynomolgus monkey at 0.2 mg/kg, iv after 48 hrs; format: functional, Macaca fascicularis; design: scale not given: the % may be the effect or the level left
# [28] = Tmax in Wistar Han rat at 5 mg/kg, id measured upto 24 hrs by LC-MS/MS analysis; format: ADME, organism-based; conditions: in vivo
# [29] = Reduction in unbound PCSK9 levels in cynomolgus monkey at 0.2 mg/kg, po after 0.5 to 6 hrs; format: functional, Macaca fascicularis; design: scale not given: the % may be the effect or the level left; conditions: time 0.5-6 hrs
# Sus scrofa [30] = species: Sus scrofa; assay: Stability of the compound assessed as porcine pancreatic elastase-mediated parent compound depletion by measuring parent compound remaining after 1 hr by LC-MS/MS analysis
# [31] = Protein binding in cynomolgus monkey at 0.2 mg/kg, iv measured upto 72 hrs by LC-MS/MS analysis; format: ADME, organism-based, Macaca fascicularis; conditions: in vivo, read-out: PB (converted)
# [32] = Oral bioavailability in cynomolgus monkey at 1 mg/kg measured upto 72 hrs by LC-MS/MS analysis; format: ADME, organism-based, Macaca fascicularis; conditions: in vivo
# [33] = biological target: T1, Proprotein convertase subtilisin/kexin type 9; assay: Inhibition of PCSK9 in human plasma assessed as reduction in unbound PCSK9 by target engagement assay; format: cell-free
# [34] = Stability of the compound assessed as bovine pancreatic trypsin-mediated parent compound depletion by measuring parent compound remaining after 1 hr by LC-MS/MS analysis; format: ADME, Bos taurus; conditions: cattle, read-out: Stability
# [35] = AUC(0 to infinity) in Wistar Han rat at 5 mg/kg, id measured upto 24 hrs by LC-MS/MS analysis; format: ADME, organism-based; design: dose 5 mg/kg, time <=24; conditions: in vivo
# [36] = Volume of distribution at steady state in cynomolgus monkey at 0.2 mg/kg, iv measured upto 72 hrs by LC-MS/MS analysis; format: ADME, organism-based, Macaca fascicularis; conditions: in vivo, read-out: Vdss
# [37] = Cmax in cynomolgus monkey at 1 mg/kg, po measured upto 72 hrs by LC-MS/MS analysis; format: ADME, organism-based, Macaca fascicularis; design: route oral, dose 1 mg/kg, time <=72; conditions: in vivo
# [38] = AUC extrapolated in Wistar Han rat at 5 mg/kg, id measured upto 24 hrs by LC-MS/MS analysis; format: ADME, organism-based; conditions: in vivo, other
# Macaca fascicularis [39] = assay: Reduction in LDL-cholesterol levels in cynomolgus monkey at 0.2 mg/kg, iv after 4 weeks; format: functional, organism-based
# [40] = Reduction in unbound PCSK9 levels in cynomolgus monkey at 0.2 mg/kg, iv after 24 to 48 hrs; format: functional, Macaca fascicularis; design: scale not given: the % may be the effect or the level left; conditions: time 24-48 hrs
# [41] = biological target: T1, Proprotein convertase subtilisin/kexin type 9; assay: Inhibition of human PCSK9 using Alexa Fluor […] as substrate incubated for 2 hrs by FRET ultra assay
# Macaca fascicularis [42] = species: Macaca fascicularis; assay: Inhibition of PCSK9 in cynomolgus monkey plasma assessed as reduction in unbound PCSK9 by target engagement assay; format: cell-free
# [43] = AUC extrapolated in cynomolgus monkey at 1 mg/kg, po measured upto 72 hrs by LC-MS/MS analysis; format: ADME, organism-based, Macaca fascicularis; conditions: in vivo
# [44] = Clearance in cynomolgus monkey at 0.2 mg/kg, iv measured upto 72 hrs by LC-MS/MS analysis; format: ADME, organism-based, Macaca fascicularis; conditions: in vivo
# Sus scrofa [45] = species: Sus scrofa; assay: Stability of the compound assessed as porcine pepsin-mediated parent compound depletion by measuring parent compound remaining after 1 hr by LC-MS/MS analysis
# [46] = Reduction in unbound PCSK9 levels in cynomolgus monkey at 0.2 mg/kg, po after 24 hrs; format: functional, Macaca fascicularis; design: scale not given: the % may be the effect or the level left
# Bos taurus = species: Bos taurus; assay: Stability of the compound assessed as bovine pancreas alpha chymotrypsin-mediated parent compound depletion by measuring parent compound remaining after 1 hr by LC-MS/MS analysis
# [47] = Metabolic stability in cynomolgus monkey whole blood assessed as half life measured upto 6 hrs by LC-MS/MS analysis; format: ADME, tissue-based, Macaca fascicularis
# [48] = AUC(0 to infinity) in cynomolgus monkey at 1 mg/kg, po measured upto 72 hrs by LC-MS/MS analysis; format: ADME, organism-based, Macaca fascicularis; design: route oral, dose 1 mg/kg, time <=72; conditions: in vivo
# [49] = Half life in cynomolgus monkey at 0.2 mg/kg, iv measured upto 72 hrs by LC-MS/MS analysis; format: ADME, organism-based, Macaca fascicularis; conditions: in vivo
# T1 sequence (Q8NBP7 31-152 limits assumed): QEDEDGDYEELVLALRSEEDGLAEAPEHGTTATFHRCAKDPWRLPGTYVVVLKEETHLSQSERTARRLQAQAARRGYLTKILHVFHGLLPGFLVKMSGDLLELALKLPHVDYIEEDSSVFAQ
# T1 sequence (Q8NBP7 153-692 limits assumed): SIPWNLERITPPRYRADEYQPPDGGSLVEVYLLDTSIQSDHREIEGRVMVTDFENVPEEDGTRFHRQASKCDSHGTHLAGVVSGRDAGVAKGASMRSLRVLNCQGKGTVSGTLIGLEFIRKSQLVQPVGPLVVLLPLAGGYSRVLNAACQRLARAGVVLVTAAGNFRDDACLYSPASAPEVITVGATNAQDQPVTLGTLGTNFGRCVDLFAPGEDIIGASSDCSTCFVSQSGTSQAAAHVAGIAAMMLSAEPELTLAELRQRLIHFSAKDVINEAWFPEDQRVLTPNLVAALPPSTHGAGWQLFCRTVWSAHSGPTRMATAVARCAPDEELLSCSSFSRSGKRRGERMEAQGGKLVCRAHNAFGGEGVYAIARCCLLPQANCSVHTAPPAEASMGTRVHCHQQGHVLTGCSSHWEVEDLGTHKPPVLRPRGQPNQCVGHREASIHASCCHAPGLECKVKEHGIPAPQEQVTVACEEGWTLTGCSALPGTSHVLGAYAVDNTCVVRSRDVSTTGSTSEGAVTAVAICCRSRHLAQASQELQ
compound,measurement,setting,value
COc1ccc(C[C@@H]2NC(=O)[C@H]([C@@H](C)OC)NC(=O)[C@@H]3[C@@H]4CCN3C(=O)[C@H](Cc3c[nH]c5ccc(F)cc35)NC(=O)[C@H](Cc3cccc(c3)C/C=C/CO4)NC(=O)[C@@H](C)NC(=O)[C@H](C)NC(=O)CCSCc3cccc(c3)CSCCNC(=O)[C@]3(C)CCCN3C2=O)cc1,Activity,Mast cell,inactive
same,Vd,[1],0.8 L/kg
same,half-life,[2],126 min
same,AUC(0-inf),[3],0.442 µM·h
same,fraction unbound at 72 h,[4],0.024
same,half-life,[5],234 min
same,clearance,[6],4.4 mL/min/kg
same,fraction unbound,[7],0.01
same,clearance,[8],28.7 mL/min/kg
same,clearance,[9],19.6 mL/min/kg
same,CL free,[10],576 mL/min/kg
same,AUC(0-inf),[11],2.92 µM·h
same,Vd,[12],2.1 L/kg
same,Ki,[13],0.48 nM
same,fraction unbound at 24 h,[14],0.01
same,Ki,[15],0.39 nM
same,Vd,[16],0.9 L/kg
same,CL free,[17],453 mL/min/kg
same,EC50,[18],130 nM
same,half-life,[19],204 min
same,AUC(0-inf),[20],0.648 µM·h
same,CL free,[21],> 3000 mL/min/kg
COc1ccc(C[C@@H]2NC(=O)[C@H]([C@@H](C)O)NC(=O)[C@@H]3[C@@H]4CCN3C(=O)[C@@H]3Cc5cn(c6ccc(F)cc56)Cc5cn(nn5)-c5cc(cc(c5)CSCCC(=O)N[C@@H](CNC(=O)CCOCCOCC[N+](C)(C)C)C(=O)N[C@H](C)C(=O)N[C@@H](Cc5cccc(c5)C/C=C/CO4)C(=O)N3)CSCCNC(=O)[C@]3(C)CCCN3C2=O)cc1,Activity,Mast cell,inactive
same,AUC(0-inf),[22],1.47 µM·h
same,bioavailability,[23],2.7%
same,Cmax,[24],92 nM
same,CL free,[25],5.8 mL/min/kg
same,Tmax,[26],2 h
same,Activity,[27],>50%
same,Tmax,[28],30 min
same,Activity,[29],80%
same,Stability,Sus scrofa [30],97%
same,fraction unbound at 72 h,[31],0.247
same,bioavailability,[32],2.9%
same,inhibition,[33],Active
same,remaining at 1 h,[34],96.8%
same,AUC(0-inf),[35],0.274 µM·h
same,Vd,[36],0.7 L/kg
same,Cmax,[37],9.8 nM
same,%AUCextra,[38],3%
same,Activity,Macaca fascicularis [39],inactive
same,Activity,[40],>80%
same,Ki,[41],2.39 pM
same,inhibition,Macaca fascicularis [42],Active
same,%AUCextra,[43],43%
same,clearance,[44],1.4 mL/min/kg
same,Stability,Sus scrofa [45],97.2%
same,Ki,[13],> 0.129 nM
same,Ki,[15],0.0114 nM
same,Activity,[46],60%
same,Stability,Bos taurus,93%
same,half-life,[47],> 360 min
same,EC50,[18],> 22000 nM
same,AUC(0-inf),[48],0.216 µM·h
same,half-life,[49],456 min
